The conditions of data set [1]: in vivo; cited from earlier work.
The conditions of data set [2]: 1,000 mg/m^2 IV once daily on days 1 to 5 of a 21-day cycle; cited from earlier work.
Data set [3] concerns the target HDAC4 (Homo sapiens, UniProt P56524). The data set can be described thus: in vitro HDAC inhibition assay (fluorescence), HDAC4. It is filed as biochemical. The conditions noted are these: read-out: Percentage Inhibition. The method, then: (§1) Briefly, all of the compounds are dissolved in DMSO. A series of dilutions of the compounds were prepared with 10% DMSO in HDAC assay buffer and 5 μl of the dilution was added to a 50 μl reaction so that the final concentration of DMSO is 1% in all of reactions. The compounds were pre-incubated in duplicate at RT for 1 hour in a mixture containing HDAC assay buffer, 5 μg BSA, HDAC enzyme (see Table 7) and a the particular HDACi. After 1 hour, the enzymatic reactions were initiated by the addition of HDAC substrate (BPS Bioscience) to a final concentration of 10 μM or 2 μM. The enzymatic reaction proceeded for 30 minutes at 37° C.
(§2) HDAC activity assays were performed in duplicates at each concentration. The fluorescent intensity data were analyzed using the computer software, Graphpad Prism. In the absence of the compound, the fluorescent intensity (Ft) in each data set was defined as 100% activity. In the absence of HDAC, the fluorescent intensity (Fb) in each data set was defined as 0% activity. The percent activity in the presence of each compound was calculated according to the following equation: % activity=(F−Fb)/(Ft−Fb), where F=the fluorescent intensity in the presence of the compound. […]

Data set [4] deals with HDAC9 (Homo sapiens, UniProt Q9UKV0). In words: in vitro HDAC inhibition assay (fluorescence), HDAC9. It is filed as biochemical. The conditions noted are these: read-out: Percentage Inhibition. The method, then:
as §1, §2

For data set [5], the target named is T1, HDAC7 (Homo sapiens, UniProt Q8WUI4).
T1 sequence (Q8WUI4 1-952): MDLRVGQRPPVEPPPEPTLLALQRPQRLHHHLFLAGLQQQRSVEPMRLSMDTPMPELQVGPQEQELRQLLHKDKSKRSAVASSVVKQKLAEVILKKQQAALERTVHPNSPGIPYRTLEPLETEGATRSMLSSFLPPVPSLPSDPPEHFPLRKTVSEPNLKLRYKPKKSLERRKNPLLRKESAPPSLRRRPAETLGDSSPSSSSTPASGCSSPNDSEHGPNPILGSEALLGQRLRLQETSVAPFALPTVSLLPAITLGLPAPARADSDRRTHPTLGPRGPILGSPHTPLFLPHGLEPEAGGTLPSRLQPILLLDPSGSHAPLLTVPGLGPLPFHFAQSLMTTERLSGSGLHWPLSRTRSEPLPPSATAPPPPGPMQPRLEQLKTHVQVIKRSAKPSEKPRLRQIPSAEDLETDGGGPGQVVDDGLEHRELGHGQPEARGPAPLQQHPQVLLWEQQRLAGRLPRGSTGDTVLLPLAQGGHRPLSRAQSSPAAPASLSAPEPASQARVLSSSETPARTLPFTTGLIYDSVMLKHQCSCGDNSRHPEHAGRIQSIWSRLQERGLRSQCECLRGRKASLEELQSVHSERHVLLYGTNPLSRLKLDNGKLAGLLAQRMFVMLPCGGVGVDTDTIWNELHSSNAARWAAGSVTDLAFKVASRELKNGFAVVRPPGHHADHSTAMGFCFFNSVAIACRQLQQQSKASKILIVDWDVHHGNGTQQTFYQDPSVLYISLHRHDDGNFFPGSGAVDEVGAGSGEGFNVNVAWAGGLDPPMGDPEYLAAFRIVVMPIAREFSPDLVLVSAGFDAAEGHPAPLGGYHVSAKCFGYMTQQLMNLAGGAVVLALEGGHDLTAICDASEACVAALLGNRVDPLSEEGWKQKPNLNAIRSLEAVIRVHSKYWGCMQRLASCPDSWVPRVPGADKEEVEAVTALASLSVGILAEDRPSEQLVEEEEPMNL
In words: in vitro HDAC inhibition assay (fluorescence), HDAC7. Type of data set: biochemical. The conditions noted are these: read-out: Percentage Inhibition. The method, then: as §1, §2

In data set [6] the target is T2, HDAC11 (Homo sapiens, UniProt Q96DB2).
T2 sequence (Q96DB2 1-347): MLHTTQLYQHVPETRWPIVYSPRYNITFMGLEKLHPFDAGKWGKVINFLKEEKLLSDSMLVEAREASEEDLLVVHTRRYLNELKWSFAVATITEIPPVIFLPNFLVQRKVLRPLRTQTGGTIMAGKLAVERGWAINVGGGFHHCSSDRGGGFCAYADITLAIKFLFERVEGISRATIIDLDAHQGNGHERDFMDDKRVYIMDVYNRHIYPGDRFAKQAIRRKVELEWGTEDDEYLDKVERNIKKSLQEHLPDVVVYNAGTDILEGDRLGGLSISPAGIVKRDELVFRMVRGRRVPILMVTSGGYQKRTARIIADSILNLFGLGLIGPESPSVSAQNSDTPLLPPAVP
The data set can be described thus: in vitro HDAC inhibition assay (fluorescence), HDAC11. The conditions noted are these: read-out: Percentage Inhibition. Type of data set: biochemical. Here is the method:
as §1, §2

The conditions of data set [7]: 30 mg twice weekly; cited from earlier work.

Molecules are shown by their SMILES.

HDAC4, sequence (P56524 whole entry): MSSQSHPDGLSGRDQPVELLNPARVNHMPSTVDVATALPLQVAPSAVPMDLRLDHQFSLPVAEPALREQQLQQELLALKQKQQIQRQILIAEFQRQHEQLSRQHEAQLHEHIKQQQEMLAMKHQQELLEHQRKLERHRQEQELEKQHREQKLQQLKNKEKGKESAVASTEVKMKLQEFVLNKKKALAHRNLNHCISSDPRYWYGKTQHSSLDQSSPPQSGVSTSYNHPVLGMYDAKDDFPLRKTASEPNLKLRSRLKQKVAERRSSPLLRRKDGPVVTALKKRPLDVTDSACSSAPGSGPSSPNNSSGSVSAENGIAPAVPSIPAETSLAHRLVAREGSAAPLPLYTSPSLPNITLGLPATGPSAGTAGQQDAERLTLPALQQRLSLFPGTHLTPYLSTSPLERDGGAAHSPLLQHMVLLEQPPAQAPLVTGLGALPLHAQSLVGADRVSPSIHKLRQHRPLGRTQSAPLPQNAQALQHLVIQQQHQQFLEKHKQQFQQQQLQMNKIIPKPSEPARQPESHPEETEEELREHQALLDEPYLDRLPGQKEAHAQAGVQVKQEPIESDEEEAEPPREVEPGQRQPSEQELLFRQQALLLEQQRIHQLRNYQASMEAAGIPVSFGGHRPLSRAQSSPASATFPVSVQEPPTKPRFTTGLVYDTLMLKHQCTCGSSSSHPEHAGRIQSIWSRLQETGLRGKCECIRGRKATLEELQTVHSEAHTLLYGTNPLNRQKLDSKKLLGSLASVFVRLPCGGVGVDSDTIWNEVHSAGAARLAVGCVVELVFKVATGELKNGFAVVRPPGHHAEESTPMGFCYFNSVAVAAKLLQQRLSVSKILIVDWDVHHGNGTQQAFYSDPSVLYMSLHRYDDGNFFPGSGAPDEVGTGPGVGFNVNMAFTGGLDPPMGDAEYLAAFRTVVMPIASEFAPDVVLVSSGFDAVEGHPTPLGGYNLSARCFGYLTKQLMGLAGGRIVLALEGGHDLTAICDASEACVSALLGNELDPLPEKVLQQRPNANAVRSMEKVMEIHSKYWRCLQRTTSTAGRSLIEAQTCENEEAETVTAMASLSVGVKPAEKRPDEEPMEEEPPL
HDAC9, sequence (Q9UKV0 whole entry): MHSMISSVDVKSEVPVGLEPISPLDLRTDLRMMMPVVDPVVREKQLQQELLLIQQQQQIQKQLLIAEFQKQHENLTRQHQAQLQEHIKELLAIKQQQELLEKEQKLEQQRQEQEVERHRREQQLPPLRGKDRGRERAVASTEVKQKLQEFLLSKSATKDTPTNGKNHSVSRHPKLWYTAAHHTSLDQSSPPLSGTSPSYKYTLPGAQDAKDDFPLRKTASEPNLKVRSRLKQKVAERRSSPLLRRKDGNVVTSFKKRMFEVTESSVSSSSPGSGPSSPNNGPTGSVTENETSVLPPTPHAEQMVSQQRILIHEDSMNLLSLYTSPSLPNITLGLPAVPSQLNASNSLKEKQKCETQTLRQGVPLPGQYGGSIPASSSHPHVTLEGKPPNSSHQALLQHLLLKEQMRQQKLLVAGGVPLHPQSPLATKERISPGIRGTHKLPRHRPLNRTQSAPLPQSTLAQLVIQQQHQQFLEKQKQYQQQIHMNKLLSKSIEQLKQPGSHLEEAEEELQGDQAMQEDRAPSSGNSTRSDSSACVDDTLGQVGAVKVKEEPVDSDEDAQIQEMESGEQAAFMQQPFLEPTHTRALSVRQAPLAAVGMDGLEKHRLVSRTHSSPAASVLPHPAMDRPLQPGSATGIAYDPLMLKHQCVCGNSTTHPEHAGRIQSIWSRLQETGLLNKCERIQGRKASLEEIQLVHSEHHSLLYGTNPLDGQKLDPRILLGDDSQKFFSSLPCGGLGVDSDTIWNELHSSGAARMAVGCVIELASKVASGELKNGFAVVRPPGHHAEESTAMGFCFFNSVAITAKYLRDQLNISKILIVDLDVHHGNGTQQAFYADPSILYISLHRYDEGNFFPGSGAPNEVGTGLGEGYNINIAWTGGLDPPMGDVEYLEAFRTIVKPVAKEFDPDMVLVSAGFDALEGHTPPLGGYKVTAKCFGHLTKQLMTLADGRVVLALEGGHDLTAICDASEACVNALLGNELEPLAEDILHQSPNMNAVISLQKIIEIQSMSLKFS

For `Nc1ccccc1NC(=O)c1ccc(CNC(=O)OCc2cccnc2)cc1` [MS-275, entinostat], in data set [1], the elimination half-life result was “approximately 36 hours”.

For the molecule `O=C(/C=C/c1cccc(S(=O)(=O)Nc2ccccc2)c1)NO` [belinostat], the “Grade 3 or 4 adverse effect rate” value in data set [2] is recorded as 47%.

Consider `C/C=C1\NC(=O)[C@H]2CSSCC/C=C/[C@H](CC(=O)N[C@H](C(C)C)C(=O)N2)OC(=O)[C@H](C(C)C)NC1=O` [FK228, romidepsin, reference compound], for which the inhibition at 100 µM in data set [3], in data set [4], in data set [5] and in data set [6] was below 17% throughout.

On to `Nc1cc(F)ccc1NC(=O)c1ccc(CNC(=O)/C=C/c2cccnc2)cc1` [Chidamide, chidamide], for which, in data set [7], the SAE rate is given as 5%.

(Values after patent US20240058347A1, “DOSAGES FOR HDAC TREATMENT WITH REDUCED SIDE EFFECTS” (VIRACTA THERAPEUTICS, INC., priority 2019, published 2024).)
